This assay has as its system Balb/c mice. Briefly: Hot-Plate Test of Balb/c mice vs. imipramine, i.p. & p.o. (Example 2). The assay is classed as in vivo. As to conditions: 5 mg/kg i.p. at t=0, group Average. As for the experimental part: 14-week old male Balb/c mice (non-naive) were divided into four groups of seven mice per group and treated at t=0 as detailed in Table 3 below:
Compound 18 stock comprises 9.4 mg Compound 18, 0.2 mL DMSO and 0.8 mL saline.
As in Example 1 above, the response latencies of the mice in the respective groups were tested using a hot-plate at t=−60 mins., 0 mins., 60 mins., 120 mins., 180 mins., 240 mins., 300 mins. and 360 mins.
For orientation: Thermal pain tests record how soon the animal reacts.

This is an account of results in patent publication US9199917B2, “N-substituted benzenepropanamide or benzenepropenamide derivatives for use in the treatment of pain and inflammation” (Novaremed Limited, priority 2008, dated 2015).

Turning to `CN(C)CCCN1c2ccccc2CCc2ccccc21` [Imipramine, imipramine], the hot-plate response latency runs as follows: (tested at t=0 mins.) 13.7 s; (tested at t=60 mins.) 14.9 s; (tested at t=120 mins.) 14.6 s; (tested at t=240 mins.) 22.9 s; (tested at t=300 mins.) 23.1 s.
